From patent US7316900B2, “Methylated nucleotide regulation of gene expression” (Quebepharma Recherche, Inc., priority 2000, dated 2008)

Tested on: uPA mRNA
Experiment: Northern blot of uPA mRNA in MCF-7 cells treated with demethylating agent (Example 6)
Assay type: cell-based, human
Details: 25 uM, ten days, vs vehicle alone
Experimental: Human breast cancer cells MCF-7 were maintained in culture and at 65% confluent cells were treated with vehicle alone (MCF-7) or 25 uM of the demethylating agent 5 azc (MCF-7+5azc) for ten days. MDA-231 cells were used as positive control (MDA-231) for uPA expression. At the end of this period 20 μg of cellular RNA from each group were electophoresed on a 1.1% agarose/formaldehyde gel and […] a ^32p labeled 18 S RNA probe. All blots (FIG. 1A) were quantified by densitometric scanning (FIG. 1B). Significant difference from control cells is represented by an asterisk (p<0.05).

## Nc1ncn([C@@H]2O[C@H](CO)[C@@H](O)[C@H]2O)c(=O)n1 [5-azc]
  uPA mRNA (Northern blot, densitometric scanning): marked induction
